Laboratory results taken from US7700655B2, “Antiallergic agents” (Institute of Medicinal Molecular Design, Inc., priority 2002, dated 2010).

Assays:
[1] = system: mouse bone marrow-derived cultured mast cells (BMCMC); assay: Degranulation inhibitory test of mast cell (β-hexosaminidase release); format: cell-based; conditions: 1 h, anti DNP IgE / DNP-BSA 50 ng/ml stimulation, 60 minutes, read-out: Inhibitory Ration of Degranulation(%) at 10 μM Drug Concentration
Method: Degranulation Inhibitory Test of Mast Cell
Anti DNP IgE was added to mouse bone marrow-derived cultured mast cells (BMCMC) which were treated beforehand with anti DNP IgE for 4 days for expression of IgE receptor. The cells were cultured for 3 days, and treated for 1 hour with or without the addition of a test substance. Then, the medium was changed to α-Modified Eagle's Medium containing 10% of bovine fetal serum without phenol red. After cultivation for 60 minutes with rmIL-3 (100 U/ml) and DNP-BSA (50 ng/ml) in the presence or absence of the test substance, the concentrations of β-hexosaminidase in the culture medium and in the cells were determined, and the progress of degranulation was measured from a ratio of the amounts. The inhibitory ratio of the degranulation by the drug was calculated when degranulation in the absence of the test substance was taken as 100%, and degranulation in the presence of anti DNP-IgE only and in the absence of the test substance was taken as 0%.

[2] = system: HT-1080 cells; assay: Proliferation inhibitory test of fibrosarcoma (HT-1080) under PDGF stimulation (MTT assay); format: cell-based; conditions: 48 hours
Method: Proliferation Inhibitory Test of Fibrosarcoma (HT-1080) Under PDGF Stimulation
HT-1080 cells were cultured for 2 hours in EMEM medium containing 1% of FBS and NEAA in the presence or absence of a test substance. PDGF was added and the cells were cultured for 48 hours, and the proliferation of the cells was measured by MTT assay.

[3] = system: B cells isolated from mouse spleen; assay: IgE production inhibitory test of spleen B cell (ELISA); format: cell-based; conditions: 0.1 μM; rmIL-4 200 U/ml + soluble mCD40 ligand 100 ng/ml, 9 days; no-drug control 45.6
Method: IgE Production Inhibitory Test of Spleen B Cell
B cells isolated from mouse spleen were cultured with 200 U/ml of rmIL-4 and 100 ng/ml of soluble mCD40 ligand in the presence or absence of a test drug in PRMI 1640 medium containing 10% of bovine fetal serum for 9 days, and the amount of IgE in the culture medium was measured by ELISA method.

[4] = system: NC/Nga mouse; assay: Dermatitis inhibitory test by atopic dermatitis model using NC/Nga mouse; format: in vivo; conditions: ointment containing 1% applied once a day; FIG. 2
Method: Dermatitis Inhibitory Test by Atopic Dermatitis Model Using NC/Nga Mouse
To the conventional NC/Nga mouse with the onset of severe dermatitis, an ointment containing 1% of a test substance for the drug treated group or a base material of the ointment for the control group was applied once a day, and clinical symptoms were recorded as scores with passage of day. Furthermore, the amounts of IgE in blood before and after the test were measured by ELISA.

[5] = system: Bone marrow-derived cultured mast cells of NC/Nga mouse; assay: Proliferation inhibitory test of mast cell under stimulation by SCF and IL-3; format: cell-based; conditions: rmIL-3 100 U/ml + SCF 100 ng/ml, living cells by trypan blue
Method: Proliferation Inhibitory Test of Mast Cell Under Stimulation by SCF and IL-3
Bone marrow-derived cultured mast cells (10^5 cells/ml) of NC/Nga mouse were cultured with rmIL-3 (100 U/ml) and SCF (100 ng/ml) in the presence or absence of a test drug in α-Modified Eagle's Medium containing 10% of bovine fetal serum without phenol red, and then stained with trypan blue, and the number of living cells was counted.

[6] = system: NC/Nga mouse; assay: Immediate type allergy reaction inhibitory test (ear swelling test); format: in vivo; conditions: 15 mg/kg intraperitoneally, picryl chloride on auricle; FIG. 1
Method: Immediate Type Allergy Reaction Inhibitory Test (Ear Swelling Test)
To NC/Nga mouse sensitized by an intravenous administration of anti DNP-IgE, a diluent with a test compound for the drug administered group or that without a test drug for the control group was intraperitoneally administered. Two hours after the administration, picryl chloride dissolved in olive oil was applied to auricle to induce immediate allergy, and then swelling of the auricle was measured with passage of time for comparison of the drug administered group and the control group.

| Compound | inhibition at 10 µM [1] [%] | Inhibitory Ratio of Proliferation(%) ([2]; Drug Concentration 250 nM) | Inhibitory Ratio of Proliferation(%) ([2]; Drug Concentration 500 nM) | also measured |
| --- | --- | --- | --- | --- |
| O=C(Nc1cc(C(F)(F)F)cc(C(F)(F)F)c1)c1cc(Cl)ccc1O [compound 50, N-[3,5-Bis(trifluoromethyl)phenyl]-5-chloro-2-hydroxybenzamide] | > 99 | 65.4 | 96.6 | Amount of IgE [3]: 24 ng/mL; effect against dermatitis with an atopic dermatitis model (clinical symptom scores) [4]: inhibitory effect; Number of Cell ([5]; 1 μM, culture time 0 hr): 100000 mL⁻¹; Number of Cell ([5]; 1 μM, culture time 24 hr): 86000 mL⁻¹; Number of Cell ([5]; 1 μM, culture time 48 hr): 84000 mL⁻¹; Number of Cell ([5]; 1 μM, culture time 72 hr): 116000 mL⁻¹; Number of Cell ([5]; 5 μM, culture time 0 hr): 100000 mL⁻¹; Number of Cell ([5]; 5 μM, culture time 24 hr): 70000 mL⁻¹; Number of Cell ([5]; 5 μM, culture time 48 hr): 52000 mL⁻¹; Number of Cell ([5]; 5 μM, culture time 72 hr): 22000 mL⁻¹; effect against immediate type allergy (swelling of the auricle) [6]: inhibitory effect |
| CC(C)(C)c1ccc(O)c(C(=O)Nc2cc(C(F)(F)F)cc(C(F)(F)F)c2)c1 [compound 56, N-[3,5-Bis(trifluoromethyl)phenyl]-5-[(1,1-dimethyl)ethyl]-2-hydroxybenzamide] | 92 | 37.5 | 96.9 | – |
| O=C(Nc1cc(C(F)(F)F)cc(C(F)(F)F)c1)c1cc(-n2cccc2)ccc1O [compound 71] | – | 57.9 | 83.1 | – |
| O=C(Nc1cc(C(F)(F)F)ccc1C(F)(F)F)c1cc(Cl)ccc1O [compound 100, N-[2,5-bis(trifluoromethyl)phenyl]-5-chloro-2-hydroxybenzamide] | 83 | – | – | – |
| O=C(Nc1cc(C(F)(F)F)ccc1Cl)c1cc(Cl)ccc1O [compound 113, 5-chloro-N-[2-chloro-5-(trifluoromethyl)phenyl]-2-hydroxybenzamide] | 93 | – | – | – |
| CC(=O)Oc1ccccc1C(=O)Nc1cc(Cl)cc(Cl)c1 [compound 172, 2-acetoxy-N-(3,5-dichlorophenyl)benzamide] | – | – | – | melting point: 218 to 219 °C |
| CC(C)(C)C(=O)c1sc(NC(=O)c2cc(Cl)ccc2O)nc1C(C)(C)C [compound 195, 5-Chloro-N-{4-[(1,1-dimethyl)ethyl]-5-[(2,2-dimethyl)propionyl]thiazol-2-yl}-2-hydroxybenzamide] | 72 | 44.7 | 81.7 | – |
| CC(C)(C)c1nc(NC(=O)c2cc(Br)ccc2O)sc1N1CCOCC1 [compound 199, 5-Bromo-N-{4-[(1,1-dimethyl)ethyl]-5-morpholinothiazol-2-yl}-2-hydroxybenzamide] | – | 26.2 | 24.2 | – |
| CC(C)(C)c1nc(NC(=O)c2cc(Br)ccc2O)sc1N1CCN(c2ccccc2)CC1 [compound 201, 5-Bromo-N-{4-[(1,1-dimethyl)ethyl]-5-(4-phenylpiperazin-1-yl)thiazol-2-yl}-2-hydroxybenzamide] | – | 60.3 | 76.2 | – |
| O=C(Nc1cc(C(F)(F)F)ccc1C(F)(F)F)c1cc(Br)ccc1O [compound 552] | – | 24.0 | 19.4 | – |
